Assay: Potentiometric titration of DPDP (pH 11.2 to 2.0), protonation sites
Assay type: physicochemical
Conditions: at a pH of 3 and above
Experimental: The compound DPDP was studied potentiometrically from pH 11.2 to 2.0. Data sets were collected on a custom-built automatic potentiometric titration apparatus composed of a METROHM 655 DOSIMAT automatic buret, a FISHER ACCUMET pH meter with a CORNING calomel combination electrode, a custom-blown water jacketed titration cell, a BRINKMAN LAUDA K-2/R constant temperature bath and a COMMODORE 64 computer. […] Data analysis was performed on an IBM-AT computer using the least squares program, BETA (Harris, W. et al, supra), and the data analysis program, HANDNBAR (Harris, W. et al, supra). […] All solutions were made from distilled, deionized water that was further purified on a MILLI-Q cartridge system, degassed, and then kept under an atmosphere of argon which had been scrubbed for CO2 and O2.

Cc1ncc(COP(=O)(O)O)c(CN(CCN(CC(=O)O)Cc2c(COP(=O)(O)O)cnc(C)c2O)CC(=O)O)c1O [DPDP, N,N'-bis-(pyridoxal-5-phosphate)-ethylenediamine-N,N'-diacetic acid]
Protonation / charge state of the ligand (dissociation constants assigned to the protonation sites): anionic and possesses deprotonated metal binding sites

— patent publication US4842845A, “Radioactive metal chelates for dipyridoxyl phosphate” (Salutar, Inc., priority 1987, dated 1989)
